Values joined by “and” are separate entries in the source; they are usually repeats but may differ in a detail not shown here. Equal entries are not always repeated. Inconclusive results and toxic doses are left out. Rule as the data show it: active = T/C of 150% or more; inactive = T/C below 125%.
Test system: L1210 leukemia ip in BDF1 mice, survival T/C
Experiment: NCI In Vivo Anticancer Drug Screen. Data for tumor model L1210 Leukemia (intraperitoneal) in B6D2F1 (BDF1) mice
Conditions: endpoint: mean survival time, higher = longer survival
Procedure, shortened: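 Tumor cells were implanted, animals were treated, and survival was followed. The result divides the treated measurement by the vehicle-control measurement.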

[1] = dose: 100.0 mg/kg/injection, schedule: Q01DX001 (ip), vehicle: carboxymethylcellulose (CMC)
[2] = dose: 200.0 mg/kg/injection, schedule: Q01DX001 (ip), vehicle: carboxymethylcellulose (CMC)
[3] = dose: 400.0 mg/kg/injection, schedule: Q01DX001 (ip), vehicle: carboxymethylcellulose (CMC)
[4] = dose: 100.0 mg/kg/injection, schedule: Q04DX003 (ip), vehicle: Klucel (hydroxypropylcellulose) (HPC)
[5] = dose: 100.0 mg/kg/injection, schedule: Q04DX003 (ip), vehicle: saline with Tween-80
[6] = dose: 200.0 mg/kg/injection, schedule: Q04DX003 (ip), vehicle: saline with Tween-80
[7] = dose: 400.0 mg/kg/injection, schedule: Q04DX003 (ip), vehicle: saline with Tween-80
[8] = dose: 100.0 mg/kg/injection, schedule: Q01DX009 (ip), vehicle: saline with Tween-80
[9] = dose: 200.0 mg/kg/injection, schedule: Q01DX009 (ip), vehicle: saline with Tween-80
[10] = dose: 400.0 mg/kg/injection, schedule: Q01DX009 (ip), vehicle: saline with Tween-80
[11] = dose: 100.0 mg/kg/injection, schedule: Q01DX001 (ip), vehicle: saline
[12] = dose: 200.0 mg/kg/injection, schedule: Q01DX001 (ip), vehicle: saline
[13] = dose: 25.0 mg/kg/injection, schedule: Q01DX001 (ip), vehicle: saline
[14] = dose: 25.0 mg/kg/injection, schedule: Q01DX009 (ip), vehicle: saline with Tween-80
[15] = dose: 50.0 mg/kg/injection, schedule: Q01DX001 (ip), vehicle: saline
[16] = dose: 50.0 mg/kg/injection, schedule: Q01DX009 (ip), vehicle: saline with Tween-80

Measured: T/C

Brc1cnn2c1NCC2
inactive: dose: 12.5 mg/kg/injection, schedule: Q01DX009 (ip), vehicle: water 100 % of control | dose: 12.5 mg/kg/injection, schedule: Q04DX003 (ip), vehicle: water 95 % of control | dose: 25.0 mg/kg/injection, schedule: Q01DX009 (ip), vehicle: water 101 % of control | dose: 25.0 mg/kg/injection, schedule: Q04DX003 (ip), vehicle: water 100 % of control | dose: 50.0 mg/kg/injection, schedule: Q01DX009 (ip), vehicle: water 97 % of control | dose: 50.0 mg/kg/injection, schedule: Q04DX003 (ip), vehicle: water 101 % of control | dose: 100.0 mg/kg/injection, schedule: Q01DX009 (ip), vehicle: water 97 % of control and 89 % of control | dose: 200.0 mg/kg/injection, schedule: Q01DX009 (ip), vehicle: water 93 % of control

CC1(C)OC(COC(=O)c2ccccc2)C2OC(C)(C)OC(COC(=O)c3ccccc3)C2O1 (centres undefined)
inactive: [1] 93 % of control | [2] 90 % of control | [3] 95 % of control

CCCCCCCCCCCCCCCCS(=O)(=O)N/N=C/c1ccc([N+](=O)[O-])cc1
inactive: [1] 94 % of control | [2] 87 % of control | [3] 105 % of control

CN1CSC(=S)N(C)C1
inactive: dose: 25.0 mg/kg/injection, schedule: Q04DX003 (ip), vehicle: Klucel (hydroxypropylcellulose) (HPC) 95 % of control | dose: 50.0 mg/kg/injection, schedule: Q04DX003 (ip), vehicle: Klucel (hydroxypropylcellulose) (HPC) 95 % of control | [4] 95 % of control and 101 % of control

OC(c1ccccc1)(c1ccccc1)c1cccs1
inactive: [5] 94 % of control | [6] 94 % of control | [7] 91 % of control

CC(=O)OC1CCC2C3CCC4=CC(=O)CCC4(C)C3=CCC12C (centres undefined)
inactive: dose: 100.0 mg/kg/injection, schedule: Q01DX001 (ip), vehicle: saline with Tween-80 95 % of control | dose: 200.0 mg/kg/injection, schedule: Q01DX001 (ip), vehicle: saline with Tween-80 95 % of control | dose: 400.0 mg/kg/injection, schedule: Q01DX001 (ip), vehicle: saline with Tween-80 92 % of control

C1=CC2C=CC1C2
inactive: [8] 97 % of control | [5] 89 % of control | [9] 92 % of control | [6] 92 % of control | [10] 89 % of control | [7] 89 % of control

CN(C)c1ccnc(N(C)C)n1
inactive: dose: 16.0 mg/kg/injection, schedule: Q01DX Z (ip), vehicle: methylcellulose (MC) 96 % of control | dose: 31.0 mg/kg/injection, schedule: Q01DX Z (ip), vehicle: methylcellulose (MC) 98 % of control

Nc1c([N+](=O)[O-])cc([N+](=O)[O-])c2ccccc12
inactive: dose: 15.0 mg/kg/injection, schedule: Q01DX015 (ip), vehicle: carboxymethylcellulose (CMC) 91 % of control | dose: 30.0 mg/kg/injection, schedule: Q01DX015 (ip), vehicle: carboxymethylcellulose (CMC) 91 % of control | dose: 50.0 mg/kg/injection, schedule: Q01DX001 (ip), vehicle: carboxymethylcellulose (CMC) 104 % of control | dose: 60.0 mg/kg/injection, schedule: Q01DX015 (ip), vehicle: carboxymethylcellulose (CMC) 102 % of control | [1] 101 % of control | dose: 120.0 mg/kg/injection, schedule: Q01DX015 (ip), vehicle: carboxymethylcellulose (CMC) 98 % of control

CC(CCc1ccccc1)N(C)C(=O)CNC(=O)CN1C(=O)c2ccccc2C1=O (centres undefined)
inactive: [11] 96 % of control | [12] 92 % of control

O=C1OC(=O)c2c(O)cccc21
inactive: dose: 12.5 mg/kg/injection, schedule: Q01DX001 (ip), vehicle: saline 101 % of control | [13] 105 % of control | [14] 98 % of control | [15] 103 % of control | [16] 104 % of control | [8] 98 % of control | dose: 150.0 mg/kg/injection, schedule: Q01DX009 (ip), vehicle: saline with Tween-80 118 % of control

CN(C)CCCN1c2ccccc2C(C)(C)c2ccccc21
inactive: [15] 96 % of control | [16] 104 % of control | dose: 50.0 mg/kg/injection, schedule: Q01DX009 (ip), vehicle: saline 106 % of control | [11] 96 % of control | [8] 116 % of control | dose: 100.0 mg/kg/injection, schedule: Q01DX009 (ip), vehicle: saline 118 % of control | [5] 107 % of control | [12] 104 % of control | [6] 102 % of control

CC1(C)[C@@H]2CC[C@]1(C)[C@@H](O)C2
inactive: dose: 100.0 mg/kg/injection, schedule: Q01DX001 (ip), vehicle: Klucel (hydroxypropylcellulose) (HPC) 104 % of control | [4] 102 % of control | dose: 200.0 mg/kg/injection, schedule: Q01DX001 (ip), vehicle: Klucel (hydroxypropylcellulose) (HPC) 96 % of control | dose: 200.0 mg/kg/injection, schedule: Q04DX003 (ip), vehicle: Klucel (hydroxypropylcellulose) (HPC) 102 % of control | dose: 400.0 mg/kg/injection, schedule: Q01DX001 (ip), vehicle: Klucel (hydroxypropylcellulose) (HPC) 93 % of control | dose: 400.0 mg/kg/injection, schedule: Q04DX003 (ip), vehicle: Klucel (hydroxypropylcellulose) (HPC) 97 % of control

CO/C=C(\C)C(=O)O
inactive: dose: 100.0 mg/kg/injection, schedule: Q01DX001 (ip), vehicle: other 102 % of control | dose: 200.0 mg/kg/injection, schedule: Q01DX001 (ip), vehicle: other 98 % of control | dose: 400.0 mg/kg/injection, schedule: Q01DX001 (ip), vehicle: other 93 % of control

O=C(NC(CSC1CCCCO1)C(=O)O)OCc1ccccc1 (centres undefined) (tested in a mixture with another compound)
inactive: [15] 106 % of control | [11] 101 % of control | [12] 97 % of control

CCCCSc1n[nH]c(=O)[nH]c1=O
inactive: [11] 113 % of control | [12] 92 % of control | dose: 400.0 mg/kg/injection, schedule: Q01DX001 (ip), vehicle: saline 95 % of control

CN(C)[C@@H]1C(=O)C(C(=O)NCNC2(C(=O)O)CCCC2)=C(O)[C@@]2(O)C(=O)C3=C(O)c4c(O)cccc4[C@@](C)(O)[C@H]3C[C@@H]12
inactive: dose: 62.0 mg/kg/injection, schedule: Q01DX Z (ip), vehicle: saline 95 % of control | dose: 125.0 mg/kg/injection, schedule: Q01DX Z (ip), vehicle: saline 98 % of control | dose: 250.0 mg/kg/injection, schedule: Q01DX Z (ip), vehicle: saline 114 % of control

COC(=O)C1CC23C=CCN4CC(C2C)C2(c5ccccc5NC12)C43 (centres undefined)
inactive: dose: 0.03 mg/kg/injection, schedule: Q01DX001 (ip), vehicle: saline 101 % of control | dose: 0.06 mg/kg/injection, schedule: Q01DX001 (ip), vehicle: saline 98 % of control | dose: 0.13 mg/kg/injection, schedule: Q01DX001 (ip), vehicle: saline 93 % of control | dose: 0.25 mg/kg/injection, schedule: Q01DX001 (ip), vehicle: saline 101 % of control | dose: 0.5 mg/kg/injection, schedule: Q01DX001 (ip), vehicle: saline 97 % of control | dose: 1.0 mg/kg/injection, schedule: Q01DX001 (ip), vehicle: saline 97 % of control | dose: 2.0 mg/kg/injection, schedule: Q01DX001 (ip), vehicle: saline 98 % of control | [13] 101 % of control | [15] 95 % of control | [11] 101 % of control

CCCNC(=O)Nc1ccc(OC)cc1Cl
inactive: dose: 100.0 mg/kg/injection, schedule: Q01DX009 (ip), vehicle: Klucel (hydroxypropylcellulose) (HPC) 93 % of control | dose: 200.0 mg/kg/injection, schedule: Q01DX009 (ip), vehicle: Klucel (hydroxypropylcellulose) (HPC) 93 % of control | dose: 400.0 mg/kg/injection, schedule: Q01DX009 (ip), vehicle: Klucel (hydroxypropylcellulose) (HPC) 93 % of control

Cc1sc(=S)n(CC(=O)O)c1C
inactive: [8] 93 % of control | [9] 93 % of control | [10] 92 % of control

N#CCCSc1ccccc1
inactive: [14] 112 % of control | [16] 91 % of control | [8] 100 % of control and 105 % of control | dose: 100.0 mg/kg/injection, schedule: Q04DX002 (ip), vehicle: saline with Tween-80 86 % of control | dose: 200.0 mg/kg/injection, schedule: Q04DX002 (ip), vehicle: saline with Tween-80 100 % of control
